From patent publication US8183380B2, “2-aminoquinolines” (Hoffmann-La Roche Inc., priority 2008, dated 2012) come the findings set out here.

T1 sequence (P47898 whole entry): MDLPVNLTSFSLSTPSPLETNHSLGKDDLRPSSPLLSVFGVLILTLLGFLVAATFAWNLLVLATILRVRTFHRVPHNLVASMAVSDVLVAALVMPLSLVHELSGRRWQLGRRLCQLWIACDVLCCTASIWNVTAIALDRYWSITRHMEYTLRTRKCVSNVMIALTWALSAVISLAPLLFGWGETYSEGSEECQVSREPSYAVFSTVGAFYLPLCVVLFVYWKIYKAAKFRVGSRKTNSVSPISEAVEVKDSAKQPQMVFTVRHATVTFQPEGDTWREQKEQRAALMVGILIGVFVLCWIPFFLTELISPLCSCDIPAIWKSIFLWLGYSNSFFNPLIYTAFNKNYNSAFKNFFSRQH

The experiment has as its target T1, recombinant human 5-HT5A receptor (Homo sapiens, UniProt P47898).
T1 construct: expressed in transfected cells; host or cells: HEK-EBNA (Human Embryonic Kidney-EBNA) cells, transient cDNA expression; membranes
Nature of the experiment: [3H]LSD radioligand binding assay. The following applies: [3H]LSD (approximately 1 nM); membranes from transiently expressed 5-HT5A receptors in HEK-EBNA cells; Ki from IC50 by Cheng-Prussoff equation. How it is done: A [^3H]LSD radioligand binding assay was used to determine the affinity of the compounds for the recombinant human 5-HT5A receptor, in membranes from transiently (cDNA) expressed 5-HT5A receptors in Human Embryonic Kidney-EBNA (HEK-EBNA) cells. Assay buffer consisted of Tris (50 mM) buffer containing 1 mM EGTA, 10 mM MgCl2 (pH 7.4) and 10 μM pargyline. The binding assay was carried out in 96-well-plates in the presence of [^3H]LSD (approximately 1 nM), approximately 2 μg/well of membrane protein, and 0.5 mg of Ysi-poly-1-lysine SPA beads in a final volume of 200 μl of buffer. Non-specific binding was defined using methiothepin 2 μM. Compounds were tested at 10 concentrations. All assays were conducted in duplicate and repeated at least two times. Assay plates were incubated for 120 min at room temperature before centrifugation. Bound ligand was determined using a Packard Topcount scintillation counter. IC50 values were calculated using a non-linear curve fitting program and Ki values calculated using the Cheng-Prussoff equation.
By Ki is commonly meant the dissociation constant of the complex between target and ligand, obtained from inhibition or displacement. Consider `CN(C1CC1)S(=O)(=O)Nc1ccc2nc(N[C@@H]3CCc4ccccc43)ccc2c1` [Example 85, N-cyclopropyl-N′-{2-[(1R)-2,3-dihydro-1H-inden-1-ylamino]quinolin-6-yl}-N-methylsulfamide], for which the inhibitory constant (Ki) stood at 9.3 nM.

As for `O=S(=O)(Nc1ccc2nc(N[C@@H]3CCc4ccccc43)ccc2c1)N1C[C@@H]2C[C@H]1CO2` [Example 88, (1S,4S)-2-Oxa-5-aza-bicyclo[2.2.1]heptane-5-sulfonic acid [2-((R)-indan-1-ylamino)-quinolin-6-yl]-amide], the Ki turned out to be 2.5 nM.

As for `COc1cccc2c1C(Nc1ccc3cc(NS(=O)(=O)N4C[C@@H]5C[C@H]4CO5)ccc3n1)CCC2` (stereo partly drawn) [Example 91, (1S,4S)-2-Oxa-5-aza-bicyclo[2.2.1]heptane-5-sulfonic acid [2-(8-methoxy-1,2,3,4-tetrahydro-naphthalen-1-ylamino)-quinolin-6-yl]-amide], the Ki was found to be 6.8 nM.

As to `O=C(Nc1ccc2nc(N[C@@H]3CCc4ccccc43)ccc2c1)NC1CCN(CCF)CC1` [Example 97, 1-[1-(2-Fluoro-ethyl)-piperidin-4-yl]-3-[2-((R)-indan-1-ylamino)-quinolin-6-yl]-urea], the Ki came out at 2.9 nM.

`O=C(Nc1ccc2nc(N[C@@H]3CCc4ccccc43)ccc2c1)N[C@@H]1C[C@H]2CC[C@@H](C1)N2C1CC1` [Example 99, 1-((3-exo)-8-Cyclopropyl-8-aza-bicyclo[3.2.1]oct-3-yl)-3-[2-((R)-indan-1-ylamino)-quinolin-6-yl]-urea]: the Ki stood at 3.9 nM.

With `CN1[C@@H]2CC[C@H]1C[C@H](NC(=O)Nc1ccc3nc(N[C@@H]4CCc5ccccc54)ccc3c1)C2` [Example 101, 1-[2-((R)-Indan-1-ylamino)-quinolin-6-yl]-3-((3-exo)-8-methyl-8-aza-bicyclo[3.2.1]oct-3-yl)-urea], the Ki worked out at 3.7 nM.

As for `O=C(Nc1ccc2nc(N[C@@H]3CCc4ccccc43)ccc2c1)N[C@@H]1C[C@H]2CCC[C@@H](C1)N2C1CC1` [Example 110, 1-((3-exo)-9-Cyclopropyl-9-aza-bicyclo[3.3.1]non-3-yl)-3-[2-((R)-indan-1-ylamino)-quinolin-6-yl]-urea], the Ki came out at 7.2 nM.

In the case of `N#CCN1CCC(NC(=O)Nc2ccc3nc(N[C@@H]4CCc5ccccc54)ccc3c2)CC1` [Example 133, 1-(1-Cyanomethyl-piperidin-4-yl)-3-[2-((R)-indan-1-ylamino)-quinolin-6-yl]-urea], the inhibition constant Ki was found to be 4.2 nM.

Turning to `CS(=O)(=O)CCN1CCC(NC(=O)Nc2ccc3nc(N[C@@H]4CCc5ccccc54)ccc3c2)CC1` [Example 135, 1-[2-((R)-Indan-1-ylamino)-quinolin-6-yl]-3-[1-(2-methanesulfonyl-ethyl)-piperidin-4-yl]-urea], the Ki was determined as 5.7 nM.

In the case of `CN(C)C(=O)CN1CCC(NC(=O)Nc2ccc3nc(N[C@@H]4CCc5ccccc54)ccc3c2)CC1` [Example 136, 2-(4-{3-[2-((R)-Indan-1-ylamino)-quinolin-6-yl]-ureido}-piperidin-1-yl)-N,N-dimethylacetamide], the inhibitory constant (Ki) was 6.5 nM.

On to `O=C(Nc1ccc2nc(N[C@@H]3CCc4ccccc43)ccc2c1)NC1CCN(CCO)CC1` [Example 137, 1-[1-(2-Hydroxy-ethyl)-piperidin-4-yl]-3-[2-((R)-indan-1-ylamino)-quinolin-6-yl]-urea], for which the inhibition constant (Ki) worked out at 1.7 nM.

On to `CC(C)OC(=O)Nc1ccc2nc(N[C@@H]3CCc4ccccc43)ccc2c1` [Example 138, [2-((R)-Indan-1-ylamino)-quinolin-6-yl]-carbamic acid isopropyl ester], for which the inhibition constant (Ki) was found to be 8 nM.

Turning to `COc1cccc2c1C(Nc1ccc3cc(NS(=O)(=O)N4C[C@@H]5C[C@H]4CO5)ccc3n1)CC2` (stereo partly drawn) [Example 148, (1S,4S)-2-Oxa-5-aza-bicyclo[2.2.1]heptane-5-sulfonic acid [2-(7-methoxy-indan-1-ylamino)-quinolin-6-yl]-amide], the Ki was 2.1 nM.

In the case of `NC(=S)Nc1ccc2nc(N[C@@H]3CCc4ccccc43)ccc2c1` [Example 149, [2-((R)-Indan-1-ylamino)-quinolin-6-yl]-thiourea], the Ki came out at 14.8 nM.

Consider `CC(C)N=C(Nc1ccc2nc(N[C@@H]3CCc4ccccc43)ccc2c1)NC(C)C` [Example 166, N-[2-((R)-Indan-1-ylamino)-quinolin-6-yl]-N′,N″-diisopropyl-guanidine], for which the Ki was determined as 33.7 nM.

On to `CC(C)N1C2CCCC1CC(NC(=O)Nc1ccc3nc(NC4CCc5ccccc54)ccc3c1)C2` [Example 168, 1-[2-((R)-Indan-1-ylamino)-quinolin-6-yl]-3-((3-exo)-9-isopropyl-9-aza-bicyclo[3.3.1]non-3-yl)-urea], for which the inhibition constant (Ki) was determined as 7.8 nM.

Take `CC(C)N1[C@@H]2CC[C@H]1C[C@H](NC(=O)Nc1ccc3nc(N[C@@H]4CCc5ccccc54)ccc3c1)C2` [Example 170, 1-[2-((R)-Indan-1-ylamino)-quinolin-6-yl]-3-((3-exo)-8-isopropyl-8-aza-bicyclo[3.2.1]oct-3-yl)-urea]: the Ki is 7.1 nM.

For the compound `CN1CCN(CC(=O)Nc2ccc3nc(N[C@@H]4CCc5ccccc54)ccc3c2)CC1` [Example 210, N-[2-((R)-Indan-1-ylamino)-quinolin-6-yl]-2-(4-methyl-piperazin-1-yl)-acetamide], the Ki was 6.7 nM.

On to “(2-Methoxy-ethyl)-methyl-sulfonic acid [2-((R)-indan-1-ylamino)quinolin-6-yl]-amide [Example 75]”, for which the inhibition constant Ki was found to be 8.3 nM.
